According to article PMC6411751, “Use of machine learning to identify novel, behaviorally active antagonists of the insect odorant receptor co-receptor (Orco) subunit” (Scientific Reports, 2019):
Where two headings read alike, the source gives them in different places.

Tests used:
Dmel\Or19a = system: Dmel\Or19a; set-up: method as in ref 1 Münch, D., Galizia, C.G. DoOR 2.0 (2016); conditions: ref 1 Münch, D., Galizia, C.G. DoOR 2.0 (2016); cited from earlier work
Dmel\Or85b = system: Dmel\Or85b; set-up: method as in ref 1 Münch, D., Galizia, C.G. DoOR 2.0 (2016); conditions: ref 1 Münch, D., Galizia, C.G. DoOR 2.0 (2016); cited from earlier work
Dmel\Or67a = system: Dmel\Or67a; set-up: method as in ref 1 Münch, D., Galizia, C.G. DoOR 2.0 (2016); conditions: ref 1 Münch, D., Galizia, C.G. DoOR 2.0 (2016); cited from earlier work
Agam\Orco = biological target: T1, Agam\Orco (Anopheles gambiae, UniProt Q7QCC7); assay: cell-based; type: cell-based
T1 construct: expressed in transfected cells; host or cells: Xenopus laevis oocytes injected with capped cRNA (plasmid pT7TS, gift of L. Zwiebel)
T1 sequence (Q7QCC7 1-478): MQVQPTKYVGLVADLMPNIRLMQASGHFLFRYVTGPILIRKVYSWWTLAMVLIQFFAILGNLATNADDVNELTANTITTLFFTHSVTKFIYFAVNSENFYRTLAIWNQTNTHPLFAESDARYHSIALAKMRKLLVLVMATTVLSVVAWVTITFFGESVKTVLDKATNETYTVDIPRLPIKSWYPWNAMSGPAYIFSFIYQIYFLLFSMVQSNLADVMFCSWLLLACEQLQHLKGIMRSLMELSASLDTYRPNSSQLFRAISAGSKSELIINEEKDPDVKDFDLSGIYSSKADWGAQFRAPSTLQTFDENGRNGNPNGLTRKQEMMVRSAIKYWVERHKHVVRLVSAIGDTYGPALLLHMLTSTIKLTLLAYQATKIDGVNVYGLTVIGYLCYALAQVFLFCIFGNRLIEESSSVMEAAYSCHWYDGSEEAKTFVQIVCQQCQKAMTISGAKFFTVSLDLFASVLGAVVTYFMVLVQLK
Description: A 2 hr incubation with collagenase B (Roche) was used to remove follicle cells from oocytes. Capped cRNA for Agam\Orco was synthesized using mMessage mMachine kits (Thermo Fisher Scientific). 25 ng of cRNA was injected into stage V–VI oocytes, followed by a 2–5 day incubation at 18 °C in Barth’s saline (in mM: 88 NaCl, 1 KCl, 2.4 NaHCO3, 0.3 CaNO3, 0.41 CaCl2, 0.82 MgSO4, 15 HEPES, pH 7.4, and 0.05 g/L tetracycline, 0.05 g/L ciprofloxacin, 0.1 g/L amikacin) prior to electrophysiological recordings.
An automated parallel electrophysiology system (OpusExpress 6000 A, Molecular Devices) was used to record Orco agonist (OLC12) or odorant induced currents under two-electrode voltage clamp. Oocytes were perfused with ND96 (in mM: 96 NaCl, 2 KCl, 1 CaCl2, 1 MgCl2, 5 HEPES, pH 7.4). DMSO was used to prepare 1 M or 100 mM stock solutions of test compounds, which were then diluted in ND96 on the day of the experiment. Compounds were applied at a flow rate of 1.0 mL/min, with extensive washing in ND96 at 4.6 mL/min between applications. Micropipettes with resistances of 0.2–2.0 MΩ were filled with 3 M KCl. The holding potential was −70 mV. Current responses were filtered (4-pole, Bessel, low pass) at 20 Hz (−3 db) and sampled at 100 Hz. OpusXpress 1.1 software (Molecular Devices) was used to capture and store current responses.
To measure antagonist activity at Orco, Agam\Orco was activated by the Orco agonist OLC12[34]. […] The current response to OLC12 in the presence of antagonist candidate was compared to the mean of the preceding two responses to OLC12 alone and presented as a percentage[34],[35]. This value was then normalized to the value obtained when the assay was run in the absence of antagonist candidate (sham).
During development of the training panel (Fig. 2, Tables S1 and S2), all compounds not previously known to be Orco antagonists were tested at a concentration of 3 mM. […] Concentration-inhibition curves were constructed for all compounds eliciting >20 percent inhibition at 3 mM. The same concentration and criteria were used during screening of predicted actives (Fig. 4D) and predicted inactives (Fig. 5C).
Clampfit 9.1 software (Molecular Devices) was used to perform initial analysis of electrophysiological data. Prism 7 (Graphpad) was used for curve fitting. Concentration-inhibition data were fit to the equation: I = Imax/(1 + (X/IC50)^n) where I represents the current response at a given concentration of inhibitor, X; Imax is the maximal response in the absence of inhibitor; IC50 is the concentration of inhibitor present that allows a half maximal response from OLC12; n is the apparent Hill coefficient.

OR expressing neurons = system: OR expressing neurons; set-up: method as in PMID 22272331; conditions: directly injected into sensilla at ≥100 µM; cited from earlier work
Dmel\Or71a = system: Dmel\Or71a; set-up: method as in ref 1 Münch, D., Galizia, C.G. DoOR 2.0 (2016); conditions: ref 1 Münch, D., Galizia, C.G. DoOR 2.0 (2016); cited from earlier work
Agam\ORs = system: Agam\ORs; set-up: method as in ref 2-5 (a number printed in a supplementary file, which may have a reference list of its own: not looked up in the article's list); conditions: cited from earlier work
Dmel\Or83c = system: Dmel\Or83c; set-up: method as in ref 1 Münch, D., Galizia, C.G. DoOR 2.0 (2016); conditions: ref 1 Münch, D., Galizia, C.G. DoOR 2.0 (2016); cited from earlier work
Dmel\Or13a = system: Dmel\Or13a; set-up: method as in ref 1 Münch, D., Galizia, C.G. DoOR 2.0 (2016); conditions: ref 1 Münch, D., Galizia, C.G. DoOR 2.0 (2016); cited from earlier work
[1] = system: Orco subunit of the Hessian fly (Mayetiola destructor); conditions: cited from earlier work
Dmel\Or22a = system: Dmel\Or22a; set-up: method as in ref 1 Münch, D., Galizia, C.G. DoOR 2.0 (2016); conditions: ref 1 Münch, D., Galizia, C.G. DoOR 2.0 (2016); cited from earlier work
Dmel\Or69a = system: Dmel\Or69a; set-up: method as in ref 1 Münch, D., Galizia, C.G. DoOR 2.0 (2016); conditions: ref 1 Münch, D., Galizia, C.G. DoOR 2.0 (2016); cited from earlier work
Dmel\Or92a = system: Dmel\Or92a; set-up: method as in ref 1 Münch, D., Galizia, C.G. DoOR 2.0 (2016); conditions: ref 1 Münch, D., Galizia, C.G. DoOR 2.0 (2016); cited from earlier work
D. melanogaster larvae = assay: Larval chemotaxis assay (attraction to ethyl acetate); type: in vivo, Drosophila melanogaster; conditions: 10 µL of EA diluted 1:10^−6 in mineral oil vs mineral oil alone; mean ± SEM
Description: We have previously provided a detailed description of these methods. Briefly, Canton-S (CS) flies were used as wild type (wt). The experimental chamber was a 100 × 15 mm polystyrene Petri dish (VWR) with 20 mL of 1.1% agarose coating the bottom. In this assay, 50 third-instar larvae were placed inside a “starting circle” at the center of the plate (the circle was drawn on the outside bottom of the plate). A line was also drawn that divided the plate in half. Small filter paper discs (d = 6 mm, Whatman Cellulose Filter Paper, # 1030 023) were placed on opposite sides of the plate (see Fig. 8A). Onto each filter paper disc was placed 10 μL of solution, containing either vehicle of dilution (mineral oil), odorant attractant (EA, diluted in mineral oil) or an Orco antagonist compound (diluted in mineral oil). The sides of the plate on which the compounds or vehicle were placed were alternated from experiment to experiment.
In order to test Orco antagonists for the ability to affect the chemotaxis assay, a large (d = 9 cm) filter paper (Whatman Filter Paper # D00161-S) was adhered with double-sided tape to the inside of the Petri dish lid. This allowed the larvae to be exposed to Orco antagonists in an airborne context. For light repulsion experiments, we used a Zeiss CL6000 LED light source at 76% intensity. Following the 5 min migratory period, plates were photographed, coded and then blind counted. Any larvae still within the starting circle or touching the center line were excluded from the analysis. A Response Index (RI) was calculated as RI = (S − C)/(S + C), where S is the number of larvae on the stimulus (EA) side and C is the number of larvae on the control (mineral oil) side. RI = 1 would indicate complete attraction, RI = −1 would indicate complete repulsion, and RI = 0 would indicate no preference. Statistical significance was assessed using a one-way analysis of the variance followed by Dunnett’s’s post-test.

oocyte = assay: Oocyte toxicity seen during Orco antagonist screening; conditions: at concentrations higher than 300 µM
From the text: Figure 4 (A) Scatter plot of predictions (Bayesian scores) from model A and model B for the 138 highest probability predicted actives. […] (B) Cluster membership of the 138 most likely predicted actives and distribution of experimentally tested compounds. […] (D) Antagonist activity of 39 predicted Orco antagonists, as well as the activity of 16 known Orco antagonists (denoted by a dot (•) preceding the compound name). […] Data are presented as mean ± SEM (n = 3–10).

[2] = Table S1, training actives, Agam\Orco activated by 30 µM OLC12, mean ± SEM (n = 3-8), read-out: IC50

## CC(C)c1ccc(C=O)cc1 [4-isopropylbenzaldehyde]
Dmel\Or19a
  scaled response from DoOR (max = 1.0): 0.351
Dmel\Or85b
  scaled response from DoOR (max = 1.0): 0.222

## CCOC(=O)/C=C/c1ccccc1 [ethyl-trans-cinnamate]
Dmel\Or67a
  scaled response from DoOR (max = 1.0): 0.143
Agam\Orco; [2]
  IC50: 134 ± 16 µM

## CCn1c(SCC(=O)N2c3ccccc3Sc3ccccc32)nnc1-c1ccco1 [VU0183254]
OR expressing neurons
  spontaneous firing rate of OR expressing neurons: reduce the spontaneous firing rate

## Cc1ccc(C(C)C)cc1 [p-cymene]
Dmel\Or71a
  scaled response from DoOR (max = 1.0): 0.063

## CC(C)=CCC[C@@H](C)CC=O [citronellal]
Agam\ORs; Or5, Or12, Or15, Or25, Or45, Or73
  activity at Agam\ORs (basal activity): inhibition of basal
Agam\ORs; Or30, Or31, Or48, Or50, Or75
  activity at Agam\ORs: activation
Dmel\Or83c
  scaled response from DoOR (max = 1.0): 0.092

## C=CC(C)(O)CCC=C(C)C (stereo not shown) [linalool]
Dmel\Or13a
  scaled response from DoOR (max = 1.0): 0.164
Dmel\Or85b
  scaled response from DoOR (max = 1.0): 0.163
Dmel\Or67a
  scaled response from DoOR (max = 1.0): 0.158

## CCc1ccc(NC(=O)CSc2nnc(-c3cccnc3)n2CC)cc1 [VUAA1, N-(4-ethylphenyl)-2-((4-ethyl-5-(3-pyridinyl)-4H-1,2,4-triazol-3-yl)thio)acetamide]
[1]
  sensitivity of Orco subunit to the agonist: insensitive

## CC(C)=CCC/C(C)=C/C=O [citral]
Dmel\Or22a
  scaled response from DoOR (max = 1.0): 0.140
Dmel\Or69a
  scaled response from DoOR (max = 1.0): 0.483
Dmel\Or92a
  scaled response from DoOR (max = 1.0): 0.325
Agam\Orco; [2]
  IC50: 452 ± 44 µM

## C=Cc1ccc(O)cc1 [4-hydroxystyrene]
Dmel\Or71a
  scaled response from DoOR (max = 1.0): 0.131

## CCOC(C)=O [ethyl acetate, reference compound]
Agam\Orco; read-out: inhibition of Agam\Orco (OLC12 response) at 3 mM, 3 mM compound, 30 µM OLC12
  inhibition at 3000 µM: ≤ 20%
D. melanogaster larvae
  response index (RI): 0.76 ± 0.08

## CCc1ccccc1O [2-ethylphenol]
Dmel\Or69a
  scaled response from DoOR (max = 1.0): 0.356
Agam\Orco
  IC50: 261 ± 14 µM
Agam\Orco; Agam\Orco IC50 compared with BMP
  loss of potency relative to BMP: 5.5 fold
Agam\ORs; Or2, Or9, Or10, Or11, Or14, Or18, Or20, Or38, Or41, Or50, Or57
  activity at Agam\ORs: activation

## CC(O)CCc1ccccc1 (stereo not shown) [4-phenyl-2-butanol]
Dmel\Or71a
  scaled response from DoOR (max = 1.0): 0.063

## Cc1ccc(C(C)C)cc1O [carvacrol]
oocyte
  oocyte toxicity: oocyte toxicity at higher concentrations
Agam\Orco; Agam\Orco IC50 compared with 3I6MC
  decrease in potency relative to 3I6MC: 3.6 fold
Agam\Orco; [2]
  IC50: 146 ± 21 µM

## O=C/C=C/c1ccccc1 [trans-cinnamaldehyde]
Dmel\Or19a
  scaled response from DoOR (max = 1.0): 0.112
Agam\Orco
  IC50: 1870 ± 94 µM

## CC(C)=CCCC(C)=CCCC(C)=CC=O [farnesal]
Dmel\Or83c
  scaled response from DoOR (max = 1.0): 0.046
